What was measured:
HugZ = molecular target: T1, HugZ (Helicobacter pylori, UniProt O25087); assay: UV-VIS Soret band screen of model porphyrins with HugZ; assay type: biochemical, H. pylori; conditions: porphyrin treated with HugZ; UV-VIS absorbance, room temperature; shift vs Control indicates protein-porphyrin interaction
T1 construct: Expression plasmids were constructed by inserting the gene for each oxygenase into the base vector pET28b; His-tag (N); made in house; host or cells: E. coli BL21-DE3(T1), pET28b
Source text: (§1) UV-VIS spectroscopy was used for initial screening of protein activity against numerous model compounds because each model porphyrin has a characteristic UV-VIS absorbance spectrum. A shift in the wavelength of maximal absorbance, commonly referred to as the “Soret band,” indicates a change in porphyrin conformation or a protein-porphyrin interaction.
(§2) To prepare crude protein, aliquots were thawed on ice and diluted 4-fold with protein assay buffer (PAB). To isolate purified oxygenases, protein aliquots were thawed on ice and proteins of interest were purified by HIS-tag-Ni-NTA column affinity followed by size exclusion chromatography with PD-10 desalting columns. Purified protein was eluted in PAB, collected in the first 2 mL PD-10 column flow-through fraction. Relative to the initial protein concentration, samples were diluted 4-fold to parallel crude protein samples.
(§3) Model porphyrin stocks were prepared in porphyrin phosphate buffer (PPB), stored at 4° C. in amber bottles to protect samples from light, and used or discarded within one month.
(§4) Amber tubes were used for all assays to protect samples from light. Crude and purified protein samples were combined with porphyrin substrates, to achieve final concentrations in Table 4, and total assay volumes were raised to 10 mL with Tris buffer. Absorbance of a 2.4 mL sample was measured in a 1 cm quartz cuvette, at room temperature, 1 nm resolution, and 0.7 sec. integration time on an Evolution201® UV-VIS spectrophotometer with Thermo INSIGHT® software. Samples were incubated for 24 hrs. at room temperature and 75 RPM and their final UV-VIS absorbance spectra was measured. An absorbance baseline was collected using Tris buffer at the beginning of each time point and ≤1% error was observed between technical replicates. Crude, empty pET28b vector (EV) strain lysate protein and PAB only controls were run in parallel with experimental samples (EXP) for each porphyrin.

HmuO = assay: UV-VIS Soret band screen of model porphyrins with HmuO; assay type: biochemical, C. jeikeium; conditions: porphyrin treated with HmuO; UV-VIS absorbance, room temperature; shift vs Control indicates protein-porphyrin interaction
Source text: (§5) A shift in the wavelength of maximal absorbance, commonly referred to as the “Soret band,” indicates a change in porphyrin conformation or a protein-porphyrin interaction.
as §2, §3
as §4, with “measured.” for “measured. An absorbance baseline was collected using Tris buffer at the beginning of each time point and ≤1% error was observed between technical replicates. Crude, empty pET28b vector (EV) strain lysate protein and PAB only controls were run in parallel with experimental samples (EXP) for each porphyrin.”

ChuS = assay: UV-VIS Soret band screen of model porphyrins with ChuS; assay type: biochemical, E. coli; conditions: porphyrin treated with ChuS; UV-VIS absorbance, room temperature; shift vs Control indicates protein-porphyrin interaction
Source text: as §1, §2, §3, §4

IsdG = molecular target: T2, IsdG (Staphylococcus aureus, UniProt Q99UW8); assay: UV-VIS Soret band screen of model porphyrins with IsdG; assay type: biochemical, S. aureus; conditions: porphyrin treated with IsdG; UV-VIS absorbance, room temperature; shift vs Control indicates protein-porphyrin interaction
T2 construct: Expression plasmids were constructed by inserting the gene for each oxygenase into the base vector pET28b; His-tag (N); made in house; host or cells: E. coli BL21-DE3(T1), pET28b
Source text: as §1, §2, §3, §4

IsdI = molecular target: T3, IsdI (Staphylococcus aureus, UniProt Q99X56); assay: UV-VIS Soret band screen of model porphyrins with IsdI; assay type: biochemical, S. aureus; conditions: porphyrin treated with IsdI; UV-VIS absorbance, room temperature; shift vs Control indicates protein-porphyrin interaction
T3 construct: Expression plasmids were constructed by inserting the gene for each oxygenase into the base vector pET28b; His-tag (N); made in house; host or cells: E. coli BL21-DE3(T1), pET28b
Source text: as §1, §2, §3, §4

PigA = molecular target: T4, PigA (Pseudomonas aeruginosa, UniProt G3XCZ8); assay: UV-VIS Soret band screen of model porphyrins with PigA; assay type: biochemical, P. aeruginosa; conditions: porphyrin treated with PigA; UV-VIS absorbance, room temperature; shift vs Control indicates protein-porphyrin interaction
T4 construct: Expression plasmids were constructed by inserting the gene for each oxygenase into the base vector pET28b; His-tag (N); made in house; host or cells: E. coli BL21-DE3(T1), pET28b
Source text: as §5, §2, §3
as §4, with “measured.” for “measured. An absorbance baseline was collected using Tris buffer at the beginning of each time point and ≤1% error was observed between technical replicates. Crude, empty pET28b vector (EV) strain lysate protein and PAB only controls were run in parallel with experimental samples (EXP) for each porphyrin.”

Molecule	Soret band wavelength (HugZ) [nm]	Soret band wavelength (HmuO) [nm]	Soret band wavelength (ChuS)	Soret band wavelength (IsdG) [nm]	Soret band wavelength (IsdI) [nm]	Soret band wavelength (PigA) [nm]
C=CC1=C(C)c2cc3[n-]c(cc4[n-]c(cc5nc(cc1n2)C(C)=C5C=C)c(C)c4CCC(=O)[O-])c(CCC(=O)[O-])c3C.[H+].[H+].[Ni+2] [Ni(II)-protoporphyrin (IX)]	417	400	400 nm	400	400	400
hemin	405	399	405/400	390	390	400
C[n+]1ccc(-c2c3nc(c(-c4cc[n+](C)cc4)c4ccc([n-]4)c(-c4cc[n+](C)cc4)c4nc(c(-c5cc[n+](C)cc5)c5ccc2[n-]5)C=C4)C=C3)cc1.[Cl-].[Cl-].[Cl-].[Cl-].[Ni+2] [Ni(II)-meso-tetra-(Nmethyl-4-pyridyl) porphine tetrachloride]		440	440 nm			
C[n+]1ccc(-c2c3nc(c(-c4cc[n+](C)cc4)c4ccc([n-]4)c(-c4cc[n+](C)cc4)c4nc(c(-c5cc[n+](C)cc5)c5ccc2[n-]5)C=C4)C=C3)cc1.[Cl-].[Cl-].[Cl-].[Cl-].[O]=[V+2] [VO-meso-tetra-(N-methyl-4-pyridyl), VO-meso-tetra-(N-methyl-4-pyridyl) porphine tetrachloride]		422	422 nm			
O=C(O)c1ccc(-c2c3nc(c(-c4ccc(C(=O)O)cc4)c4ccc([n-]4)c(-c4ccc(C(=O)O)cc4)c4nc(c(-c5ccc(C(=O)O)cc5)c5ccc2[n-]5)C=C4)C=C3)cc1.[Ni+2] [Ni(II)-meso-tetra-(4-carboxyphenyl) porphine]	400	405	410/405	400	400	404
Fe(III)-meso-tetra-(4-carboxyphenyl) porphine chloride	418	417	424/420	410	410	414

Source: patent US10883088B2, “Biological upgrading of hydrocarbon streams with oxygenases” (priority 2017, dated 2021)
